pIC50: −log10 of the molar value. Where two headings read alike, the source gives them in different places.

Drawing on patent US9718804B2, “GSK-3 inhibitors” (BRISTOL-MYERS SQUIBB COMPANY, priority 2013, dated 2017), this text covers IC50 for 24 compounds.

The target of one assay is GSK3β (Homo sapiens, UniProt P49841). Kind of assay: GSK3β kinase assay (Caliper LabChip, fluoresceinated peptide substrate). The format is biochemical. As to conditions: for IC50: first value of the cell, 250 pM enzyme, 20 uM ATP, 20 hours at room temperature, read-out: GSK3β/α (nM): GSK3β IC50. The procedure, abridged:
(§1)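 Readout: electrophoretic resolution of phosphorylated from unphosphorylated peptide on a LabChip3000. Reactions incubated 20 h at room temperature before termination with 35 mM EDTA. Eleven-concentration curves gave IC50 via non-linear regression.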

The next assay has as its target GSK3α (Homo sapiens, UniProt P49840). Kind of assay: GSK3α kinase assay (Caliper LabChip, fluoresceinated peptide substrate). It counts as biochemical. As to conditions: for IC50: second value of the cell, 250 pM enzyme, 20 uM ATP, 20 hours at room temperature, read-out: GSK3β/α (nM): GSK3α IC50. The gist of the method: as §1
Another assay has as its system pTau. Kind of assay: pTau assay (no method described). It counts as cell-based.

GSK3β, sequence (P49841 whole entry, species assumed): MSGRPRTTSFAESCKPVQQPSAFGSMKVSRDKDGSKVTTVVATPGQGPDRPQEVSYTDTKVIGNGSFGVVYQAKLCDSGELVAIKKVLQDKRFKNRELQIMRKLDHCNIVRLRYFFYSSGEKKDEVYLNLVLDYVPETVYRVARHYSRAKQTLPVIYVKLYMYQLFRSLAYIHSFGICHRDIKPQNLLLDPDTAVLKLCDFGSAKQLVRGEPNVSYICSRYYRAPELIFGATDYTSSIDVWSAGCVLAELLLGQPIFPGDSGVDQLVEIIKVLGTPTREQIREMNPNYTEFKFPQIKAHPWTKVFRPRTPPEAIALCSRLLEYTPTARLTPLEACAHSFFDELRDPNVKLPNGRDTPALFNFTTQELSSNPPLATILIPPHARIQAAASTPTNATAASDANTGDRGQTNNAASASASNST
GSK3α, sequence (P49840 whole entry, species assumed): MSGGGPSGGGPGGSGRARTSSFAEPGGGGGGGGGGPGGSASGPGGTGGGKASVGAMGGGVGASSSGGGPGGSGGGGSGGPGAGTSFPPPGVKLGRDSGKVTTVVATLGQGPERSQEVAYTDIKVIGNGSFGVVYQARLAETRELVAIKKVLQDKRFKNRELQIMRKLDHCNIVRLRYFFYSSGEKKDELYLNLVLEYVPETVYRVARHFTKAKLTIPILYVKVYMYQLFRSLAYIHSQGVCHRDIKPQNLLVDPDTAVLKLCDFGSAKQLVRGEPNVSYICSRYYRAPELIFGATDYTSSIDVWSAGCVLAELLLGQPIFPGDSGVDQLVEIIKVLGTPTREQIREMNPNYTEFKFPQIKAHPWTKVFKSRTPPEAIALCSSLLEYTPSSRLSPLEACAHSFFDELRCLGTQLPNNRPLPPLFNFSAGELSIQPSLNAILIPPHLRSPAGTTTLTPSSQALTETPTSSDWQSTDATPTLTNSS

Consider `O=C(Nc1cnc(Cl)cc1C1(C2CC2)OCCO1)c1ccnc(Nc2ccc(C(F)(F)F)cn2)c1` [Example 87, N-(6-Chloro-4-(2-cyclopropyl-1,3-dioxolan-2-yl)pyridin-3-yl)-2-((5-(trifluoromethyl)pyridin-2-yl)amino)isonicotinamide], for which the IC50 at GSK3β was 0.04 nM. For the same compound, the pIC50 is 9.77 against GSK3α and 8.18 in the assay with pTau.

Take `CCCC1(c2cc(Cl)ncc2NC(=O)c2ccnc(Nc3ccc(C(F)(F)F)cn3)c2)OCCO1` [Example 88, N-(6-Chloro-4-(2-propyl-1,3-dioxolan-2-yl)pyridin-3-yl)-2-((5-(trifluoromethyl)pyridin-2-yl)amino)isonicotinamide]: the IC50 at GSK3β worked out at 0.69 nM. Besides, the pIC50 on GSK3α was 9.64; with pTau, 7.10.

For `CC[C@@]1(c2cc(Cl)ncc2NC(=O)c2ccnc(Nc3ccc(C(F)(F)F)cn3)c2)OC[C@H](C)O1` [Example 89, N-(6-Chloro-4-((2R,4S)-2-ethyl-4-methyl-1,3-dioxolan-2-yl)pyridin-3-yl)-2-((5-(trifluoromethyl)pyridin-2-yl)amino)isonicotinamide], the IC50 on GSK3β turned out to be 1.6 nM. For the same compound, the pIC50 was 8.77 against GSK3α and 6.47 in the assay with pTau.

Turning to `CC[C@@]1(c2cc(Cl)ncc2NC(=O)c2ccnc(Nc3ccc(C(F)(F)F)cn3)c2)OC[C@@H](C)O1` [Example 90, N-(6-Chloro-4-((2R,4R)-2-ethyl-4-methyl-1,3-dioxolan-2-yl)pyridin-3-yl)-2-((5-(trifluoromethyl)pyridin-2-yl)amino)isonicotinamide], at GSK3β, the IC50 amounted to 2 nM. The results for the pIC50 at GSK3α and with pTau were 9.03 and 6.82, respectively.

For `COc1cc(C2(C)OCCO2)c(NC(=O)c2ccnc(Nc3ccc(C(F)(F)F)cn3)c2)cn1` [Example 91, N-(6-Methoxy-4-(2-methyl-1,3-dioxolan-2-yl)pyridin-3-yl)-2-((5-(trifluoromethyl)pyridin-2-yl)amino)isonicotinamide], the IC50 at GSK3β is 3.9 nM. For the same compound, the pIC50 against GSK3α was 7.70; with pTau, 5.92.

On to `O=C(Nc1cnc(Cl)cc1C(=O)C1CC1)c1ccnc(Nc2ccc(C(F)(F)F)cn2)c1` [Example 92, N-(6-Chloro-4-(cyclopropanecarbonyl)pyridin-3-yl)-2-((5-(trifluoromethyl)pyridin-2-yl)amino)isonicotinamide], for which the IC50 at GSK3β is 8.8 nM. The pIC50 against GSK3α was 8.40; with pTau, 5.85.

For the compound `O=C(Nc1cnc(Cl)cc1C(O)C1CC1)c1ccnc(Nc2ccc(C(F)(F)F)cn2)c1` (stereo not drawn) [Example 93, N-(6-Chloro-4-(cyclopropyl(hydroxy)methyl)pyridin-3-yl)-2-((5-(trifluoromethyl)pyridin-2-yl)amino)isonicotinamide], the IC50 on GSK3β worked out at 2.6 nM. For the same compound, the pIC50 at GSK3α is 9.11; with pTau, 6.96.

Take `O=C(Nc1cnc(F)cc1C1(C2CC2)OCCO1)c1ccnc(Nc2ccc(C(F)(F)F)cn2)c1` [Example 94, N-(4-(2-Cyclopropyl-1,3-dioxolan-2-yl)-6-fluoropyridin-3-yl)-2-((5-(trifluoromethyl)pyridin-2-yl)amino)isonicotinamide]: the IC50 on GSK3β amounted to 0.06 nM. In addition, the results for the pIC50 against GSK3α and in the assay with pTau were 10.52 and 8.92, respectively.

Consider `O=C(Nc1cnc(Cl)cc1C1(c2ccccc2)OCCO1)c1ccnc(Nc2ccc(C(F)(F)F)cn2)c1` [Example 95, N-(6-Chloro-4-(2-phenyl-1,3-dioxolan-2-yl)pyridin-3-yl)-2-((5-(trifluoromethyl)pyridin-2-yl)amino)isonicotinamide], for which the IC50 at GSK3β was 10 nM. In addition, the pIC50 against GSK3α was 8.26; in the assay with pTau, 6.04.

Turning to `C[C@@H]1CO[C@](c2cc(Cl)ncc2NC(=O)c2ccnc(Nc3ccc(C(F)(F)F)cn3)c2)(C2CC2)O1` [Example 96, N-(6-Chloro-4-((2R,4R)-2-cyclopropyl-4-methyl-1,3-dioxolan-2-yl)pyridin-3-yl)-2-((5-(trifluoromethyl)pyridin-2-yl)amino)isonicotinamide], the IC50 at GSK3β amounted to 0.29 nM. The pIC50 was 9.80 at GSK3α and 7.41 in the assay on pTau.

Turning to `C[C@H]1CO[C@](c2cc(Cl)ncc2NC(=O)c2ccnc(Nc3ccc(C(F)(F)F)cn3)c2)(C2CC2)O1` [Example 97, N-(6-Chloro-4-((2R,4S)-2-cyclopropyl-4-methyl-1,3-dioxolan-2-yl)pyridin-3-yl)-2-((5-(trifluoromethyl)pyridin-2-yl)amino)isonicotinamide], the IC50 on GSK3β came out at 1.5 nM. The pIC50 against GSK3α is 9.25; in the assay on pTau, 7.08.

For the compound `CC(O)(c1cc(Cl)ncc1NC(=O)c1ccnc(Nc2ccc(C(F)(F)F)cn2)c1)C1CC1` (stereo not drawn) [Example 98, N-(6-Chloro-4-(1-cyclopropyl-1-hydroxyethyl)pyridin-3-yl)-2-((5-(trifluoromethyl)pyridin-2-yl)amino)isonicotinamide], the IC50 on GSK3β is 3.7 nM. The pIC50 against GSK3α was 8.40; in the assay with pTau, 6.64.

Consider `O=C(Nc1cnc(Cl)cc1C(O)(C1CC1)C1CC1)c1ccnc(Nc2ccc(C(F)(F)F)cn2)c1` [Example 99, N-(6-Chloro-4-(dicyclopropyl(hydroxy)methyl)pyridin-3-yl)-2-((5-(trifluoromethyl)pyridin-2-yl)amino)isonicotinamide], for which the IC50 at GSK3β stood at 6.4 nM. The pIC50 against GSK3α is 8.34; with pTau, 6.37.

With `CCCC(O)c1cc(Cl)ncc1NC(=O)c1ccnc(Nc2ccc(C(F)(F)F)cn2)c1` (stereo not drawn) [Example 100, N-(6-Chloro-4-(1-hydroxybutyl)pyridin-3-yl)-2-((5-(trifluoromethyl)pyridin-2-yl)amino)isonicotinamide], the IC50 at GSK3β stood at 11 nM. Also, the pIC50 on GSK3α is 8.08; in the assay with pTau, 6.30.

Regarding `CCC(O)(c1cc(Cl)ncc1NC(=O)c1ccnc(Nc2ccc(C(F)(F)F)cn2)c1)C1CC1` (stereo not drawn) [Example 101, N-(6-Chloro-4-(1-cyclopropyl-1-hydroxypropyl)pyridin-3-yl)-2-((5-(trifluoromethyl)pyridin-2-yl)amino)isonicotinamide], the IC50 at GSK3β was determined as 11 nM. The pIC50 at GSK3α is 8.13; in the assay on pTau it was 6.18.

For `CC(C)C(O)(c1cc(Cl)ncc1NC(=O)c1ccnc(Nc2ccc(C(F)(F)F)cn2)c1)C1CC1` (stereo not drawn) [Example 102, N-(6-Chloro-4-(1-cyclopropyl-1-hydroxy-2-methylpropyl)pyridin-3-yl)-2-((5-(trifluoromethyl)pyridin-2-yl)amino)isonicotinamide], at GSK3β, the IC50 worked out at 43 nM. Besides, the pIC50 at GSK3α was 7.52; in the assay on pTau it was 5.92.

Take `CC(C)C(O)c1cc(Cl)ncc1NC(=O)c1ccnc(Nc2ccc(C(F)(F)F)cn2)c1` (stereo not drawn) [Example 103, N-(6-Chloro-4-(1-hydroxy-2-methylpropyl)pyridin-3-yl)-2-((5-(trifluoromethyl)pyridin-2-yl)amino)isonicotinamide]: the IC50 at GSK3β was determined as 6.7 nM. Moreover, the pIC50 against GSK3α was 8.41; with pTau it was 6.27.

With `CC(C)(C)C(O)c1cc(Cl)ncc1NC(=O)c1ccnc(Nc2ccc(C(F)(F)F)cn2)c1` (stereo not drawn) [Example 104, N-(6-Chloro-4-(1-hydroxy-2,2-dimethylpropyl)pyridin-3-yl)-2-((5-(trifluoromethyl)pyridin-2-yl)amino)isonicotinamide], on GSK3β, the IC50 was 18 nM. Also, the pIC50 is 8.00 on GSK3α and 6.55 in the assay on pTau.

With `Cc1cc(C(O)C2CC2)c(NC(=O)c2ccnc(Nc3ccc(C(F)(F)F)cn3)c2)cn1` (stereo not drawn) [Example 106, N-(4-(Cyclopropyl(hydroxy)methyl)-6-methylpyridin-3-yl)-2-((5-(trifluoromethyl)pyridin-2-yl)amino)isonicotinamide], on GSK3β, the IC50 turned out to be 0.25 nM. Moreover, the pIC50 against GSK3α was 9.31; with pTau it was 7.66.

With `Cc1cc(C(C)(O)C2CC2)c(NC(=O)c2ccnc(Nc3ccc(C(F)(F)F)cn3)c2)cn1` (stereo not drawn) [Example 107, N-(4-(1-Cyclopropyl-1-hydroxyethyl)-6-methylpyridin-3-yl)-2-((5-(trifluoromethyl)pyridin-2-yl)amino)isonicotinamide], at GSK3β, the IC50 was determined as 0.92 nM. Moreover, the results for the pIC50 at GSK3α and in the assay on pTau were 9.12 and 7.03, respectively.

For `CCC1(c2cc(Cl)ncc2NC(=O)c2ccnc(Nc3ccccn3)c2)OCCO1` [Example 108, N-(6-Chloro-4-(2-ethyl-1,3-dioxolan-2-yl)pyridin-3-yl)-2-(pyridin-2-ylamino)isonicotinamide], the pIC50 is 8.85 against GSK3β and 7.52 with pTau. Further, the IC50 at GSK3α was found to be 0.95 nM.

Regarding `CCC1(c2cc(Cl)ncc2NC(=O)c2ccnc(Nc3ccc(C)cn3)c2)OCCO1` [Example 109, N-(6-Chloro-4-(2-ethyl-1,3-dioxolan-2-yl)pyridin-3-yl)-2-((5-methylpyridin-2-yl)amino)isonicotinamide], the pIC50 was 8.74 on GSK3β and 7.35 with pTau. Besides, at GSK3α, the IC50 was found to be 1.2 nM.

Consider `O=C(Nc1cnc(F)cc1OCC(F)(F)F)c1ccnc(Nc2ccc(Cl)cn2)c1` [Example 110, 2-((5-Chloropyridin-2-yl)amino)-N-(6-fluoro-4-(2,2,2-trifluoroethoxy)pyridin-3-yl)isonicotinamide], for which the IC50 at GSK3β was 3.8 nM. Moreover, the pIC50 against GSK3α was 9.29; in the assay with pTau, 6.77.

Regarding `O=C(Nc1cnc(Cl)cc1C1(O)CCOCC1)c1ccnc(Nc2ccc(Cl)cn2)c1` [Example 111, N-(6-Chloro-4-(4-hydroxytetrahydro-2H-pyran-4-yl)pyridin-3-yl)-2-((5-chloropyridin-2-yl)amino)isonicotinamide], the pIC50 against GSK3β is 8.59; in the assay on pTau it was 6.28. Further, the IC50 at GSK3α stood at 1.4 nM.

As a reminder, the pIC50 is the IC50 on a negative log10 scale, so that one unit is a factor of ten.
